The text below walks through data of patent publication US20260042754A1, “Substituted Bicyclic Heteroaryl Sulfonamide Derivatives for the Treatment of Cancer” (NODUS ONCOLOGY LIMITED, priority 2022, published 2026).

The test system of experiment [1] is NCI-H1650. Briefly: Modified cell proliferation assay (CellTiter-Glo), NCI-H1650. The format is cell-based. To be noted: modified protocol, 384-well, 300 cells per well, 120 h, highest concentration tested 30000 nM, read-out: NCI-H1650 GI50 (high PARG dependency). As to the method: (§1) The cell proliferation assay protocol was modified and used for RMUG-S for Examples 12-44, and subsequently used to test Examples 1-44 in the NCI-H1650 cell line.
(§2) NCI-H1650 (ATCC, #CRL-5883) or RMUG-S were seeded on day 1 at 300 cells per well in a 384-well plate (Greiner, #781080) that assure assay linearity and optimal signal intensity in 25 μL of RPMI1640 media (Pan Biotech, #P04-22100) containing 10% FCS (Capricorn, #FBS-11A; Lot. CP22-5141) and 1% Glutamine (Pan Biotech, #P04-80100). After incubation for 24 h in humidified chambers at 37° C./5% CO2, compounds/DMSO were dispensed at different concentrations using an Echo 520 (Beckman Coulter). Cells were further incubated for 120 h at 37° C. and 5% CO2. Cells treated with the compound vehicle DMSO were used as negative controls and cells treated with 10 μM Staurosporine (LC Laboratories, #S-9300) served as positive controls.
(§3) At day 6 the CellTiter Glo Reagent was prepared according to the instructions of the kit (Promega Inc.): Reagent was mixed 1:1 with cell culture medium. Thereon, mixture and assay plates were equilibrated at room temperature for 20 min. Equal volumes of the reagent-medium-mixture were added to the volume of culture medium present in each well. The plates were mixed at […] for 2 minutes on an orbital shaker (Timix5, Edmund Buehler GmbH). The microplates were then incubated at room temperature for 10 minutes for stabilization of the luminescent signal. Following incubation, the luminescence was recorded on a Victor X5 microplate reader (Perkin Elmer) using a 200 ms integration time. The data was then analyzed with Excel using the XLFIT Plugin (dose response Fit 205) for determination of the concentration necessary for half-maximal inhibition (i.e. the inflection point of the fitted curve).
(§4) As quality control the Z′-factor was calculated from 16 positive and negative control values. Only assay results showing a Z′-factor≥0.5 were used for further analysis.
A general note: In ATP-based viability assays light output follows the ATP content of the culture.

The test system of experiment [2] is RMUG-S. Kind of experiment: Modified cell proliferation assay (CellTiter-Glo), RMUG-S, Examples 12-44. Type of experiment: cell-based. The following applies: Examples 12-44: modified protocol, 384-well, 300 cells per well, 120 h; highest concentration tested 9000 nM; read-out: RMUG-S GI50 (high PARG dependency). The procedure: as §1, §2, §3, §4
Experiment [3] deals with human PARG (PARG-NanoLuc fusion in HEK293T cells) (Homo sapiens (Human), UniProt Q86W56). Kind of experiment: PARG NanoBRET-based cellular target engagement assay. The format is cell-based. The following applies: HEK293T cells transfected with PARG-NanoLuc, NanoBRET probe 0.89 μM, 2 hours; read-out: PARG TE IC50. The procedure: PARG Nano-luciferase construct: The PARG-NanoLuc® fusion vector was generated by Promega, by inserting the full length human PARG cDNA sequence encoding the 976 amino acid protein (Gene ID: 8505, UniProt: Q86W56) into the pNLF1-C [CMV/Hygro] vector (C-terminal fusions with NanoLuc® enzyme).
PARG target engagement tracer synthesis: The NanoBRET tracer for PARG was prepared following a previously reported general tracer synthesis procedure.
PARG Probe Displacement Assay Using NanoBRET: HEK293T (DSMZ #ACC 635) cells transiently transfected with the PARG-NanoLuc fusion construct were resuspended in phenol red-free OptiMEM (Gibco #11058-021) to a concentration of 2.4×10^5 cells/mL. 9 μL per well were then added to a white 384-well low volume microplate (Greiner #784080) and incubated for 24 hours under standard growth conditions.
Then compound was dispensed into each well using an Echo dispenser (BeckmanCoulter) to yield the pre-specified final concentration of the range of concentrations to be tested (typically 8-point serial concentrations ranging from either from 0.01 to 10 μM, or from 0.001 to 1 μM, or from 0.0001 to 0.1 μM), and being volume-corrected with 100% DMSO (0.5% final DMSO concentration in reaction mixtures).
After mixing and an incubation at room temperature for 15 min 1 μl of the NanoBRET probe (at 0.89 μM final concentration) was added to the microplate using a multichannel pipette. The plate was mixed and incubated in a 5% CO2 environment at 37° C. for 2 hours, and then 5 μL per well of a solution consisting of a 1:31.25 dilution of Nano-Glo substrate (Promega) and a 1:500 dilution of NanoLuc extracellular inhibitor (Promega) in phenol red-free OptiMEM was added to each well followed by another mixing step. Filtered luminescence was measured on an EnVision plate reader (PerkinElmer) equipped with a 460 nm filter (donor) and a 645 nm filter (acceptor). BRET ratios were plotted as concentration-response curves fitted to a sigmoidal 4-parameter logistic model to calculate IC50 values (Scigilian Analyze).
In general terms: In BRET a luciferase serves as donor, and the signal depends on an acceptor being close.

In experiment [4] the target is Recombinant His-tagged human PARG protein (Homo sapiens (Human), UniProt Q86W56). Briefly: PARG enzymatic assay (TFMU-ADPr fluorescence). The format is biochemical. To be noted: 1 nM enzyme, 200 μM TFMU-ADPr, read after 30 minutes. As to the method: Inhibition of PARG enzymatic activity by compounds was determined as follows: Recombinant His-tagged human PARG protein expressed in Sf21 insect cells (Adipogen AG, #40T-0022) was aliquoted and stored at −80° C. until use. The artificial enzyme substrate 4-(trifluoromethyl)umbelliferone (TFMU)-ADPr was prepared essentially as described (Drown B S et al, Cell Chemical Biology 2018) and stored at −20° C. as 10 mM stock solutions in DMSO (dimethyl sulfoxide) until use. For reactions, typical final concentration of the enzyme was 1 nM and of the TFMU-ADPr 200 μM. Reactions were carried out in black 384-well low volume round bottom assay plates (Corning, #4514) in a final volume of 10 μL. To this end, PARG was diluted to 1.67 nM in reaction buffer (50 mM K2HPO4, 50 mM KCl, 10 mM β-mercaptoethanol, pH 7.4) and 6 μL were dispensed per assay well using a multichannel pipette. Then compound was dispensed into each well using an Echo dispenser (BeckmanCoulter) to yield the pre-specified final concentration of the range of concentrations to be tested (typically 8-point serial concentrations ranging from either from 0.01 to 10 μM, or from 0.001 to 1 μM, or from 0.0001 to 0.1 μM), and being volume-corrected with 100% DMSO (0.5% final DMSO concentration in reaction mixtures). Plates were mixed, and after 15 minutes 4 μL TFMU-ADPr was added into each well using a multichannel pipette followed by brief mixing. Fluorescence intensity signals were then measured after 30 minutes on an EnVision microplate reader (PerkinElmer) using 380/10 nm and 535/25 nm filters for the excitation and emission, respectively (gain: 150). The assay window was set using DMSO control (top) and a control containing no PARG enzyme (bottom). Delta values were plotted as concentration-response curves fitted to a sigmoidal 4-parameter logistic model to calculate IC50 values (Scigilian Analyze).

Read-outs that look alike come from different tables or passages of the source.

As usually defined, the GI50 is the concentration that inhibits growth by half. Usually IC50 stands for the concentration needed to halve the response being measured.

Recombinant His-tagged human PARG protein, sequence (Q86W56 whole entry): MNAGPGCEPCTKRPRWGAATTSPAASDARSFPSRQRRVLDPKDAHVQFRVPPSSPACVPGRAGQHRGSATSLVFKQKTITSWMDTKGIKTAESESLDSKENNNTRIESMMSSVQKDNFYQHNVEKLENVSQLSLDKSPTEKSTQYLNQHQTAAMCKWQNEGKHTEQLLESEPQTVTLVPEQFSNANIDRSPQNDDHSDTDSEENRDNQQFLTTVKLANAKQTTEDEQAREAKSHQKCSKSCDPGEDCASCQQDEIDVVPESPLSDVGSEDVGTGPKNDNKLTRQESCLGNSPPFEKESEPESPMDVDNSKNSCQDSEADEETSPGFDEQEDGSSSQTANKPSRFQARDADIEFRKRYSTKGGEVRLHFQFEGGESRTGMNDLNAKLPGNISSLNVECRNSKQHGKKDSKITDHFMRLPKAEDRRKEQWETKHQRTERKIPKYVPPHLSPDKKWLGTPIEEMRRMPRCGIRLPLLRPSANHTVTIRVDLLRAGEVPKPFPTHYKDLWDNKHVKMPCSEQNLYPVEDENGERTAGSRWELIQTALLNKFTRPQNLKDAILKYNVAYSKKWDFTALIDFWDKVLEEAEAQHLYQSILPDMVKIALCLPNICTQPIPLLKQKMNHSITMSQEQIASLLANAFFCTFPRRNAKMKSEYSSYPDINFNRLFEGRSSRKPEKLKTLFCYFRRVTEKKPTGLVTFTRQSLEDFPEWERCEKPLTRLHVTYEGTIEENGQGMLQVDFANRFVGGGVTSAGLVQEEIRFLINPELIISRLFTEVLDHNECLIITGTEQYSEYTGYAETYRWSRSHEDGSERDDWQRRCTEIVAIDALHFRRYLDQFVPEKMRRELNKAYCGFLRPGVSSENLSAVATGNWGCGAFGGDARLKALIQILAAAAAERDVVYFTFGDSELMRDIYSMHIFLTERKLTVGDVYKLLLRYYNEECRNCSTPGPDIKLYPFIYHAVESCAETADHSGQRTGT
human PARG (PARG-NanoLuc fusion in HEK293T cells), sequence (Q86W56 whole entry, the tested form may be a part): as the sequence (Q86W56 whole entry) above

In the case of `CO/N=c1\[nH]c2c(C3CCN(C(C)=O)[C@H](C)C3)cc(S(=O)(=O)NC3(C)CC3)cc2c(=O)n1Cc1cnn(C)c1` (stereo partly drawn) [Example 26, (2E)-2-methoxyimino-N-(1-methylcyclopropyl)-3-[(1-methylpyrazol-4-yl)methyl]-4-oxo-8-[(2R)-1-acetyl-2-methyl-4-piperidyl]-1H-quinazoline-6-sulfonamide], the concentration for 50% growth inhibition (GI50) fell in the range of 500 to 2000 nM in experiment [1] (Homo sapiens, NCI-H1650) and 2000 to 9000 nM in experiment [2]. Moreover, the half-maximal inhibitory concentration (IC50) in experiment [3] and in experiment [4] was < 30 nM in each case.
For `CO/N=c1\[nH]c2c(C3=C[C@@H](C)N(C(C)=O)CC3)cc(S(=O)(=O)NC3(C)CC3)cc2c(=O)n1Cc1cnn(C)c1` [Example 29, (2E)-2-methoxyimino-N-(1-methylcyclopropyl)-3-[(1-methylpyrazol-4-yl)methyl]-4-oxo-8-[(2R)-1-acetyl-2-methyl-3,6-dihydro-2H-pyridin-4-yl]-1H-quinazoline-6-sulfonamide/(2E)-2-methoxyimino-N-(1-methylcyclopropyl)-3-[(1-methylpyrazol-4-yl)methyl]-4-oxo-8-[(6R)-1-acetyl-6-methyl-3,6-dihydro-2H-pyridin-4-yl]-1H-quinazoline-6-sulfonamide], the 50% growth inhibitory concentration (GI50) in experiment [1] and in experiment [2] was 500 to 2000 nM throughout. Also, the IC50 in experiment [3] and in experiment [4] was < 30 nM in each case.
Take `CO/N=c1\[nH]c2c(-c3ccc(C(=O)C4(C)CC4)cc3)cc(S(=O)(=O)NC3(C)CC3)cc2c(=O)n1Cc1cnn(C)c1` [Example 18, (E)-2-(methoxyimino)-3-((1-methyl-1H-pyrazol-4-yl)methyl)-8-(4-(1-methylcyclopropane-1-carbonyl)phenyl)-N-(1-methylcyclopropyl)-4-oxo-1,2,3,4-tetrahydroquinazoline-6-sulfonamide]: in experiment [1] (Homo sapiens, NCI-H1650), the concentration for 50% growth inhibition (GI50) lay in the range of 500 to 2000 nM. Besides, the IC50 in experiment [3] and in experiment [4] was < 30 nM throughout.
In the case of `CO/N=c1\[nH]c2c(-c3ccc(C(=O)N(C)C)nc3)cc(S(=O)(=O)NC3(C)CC3)cc2c(=O)n1Cc1cnn(C)c1` [Example 19, (E)-5-(2-(methoxyimino)-3-((1-methyl-1H-pyrazol-4-yl)methyl)-6-(N-(1-methylcyclopropyl)sulfamoyl)-4-oxo-1,2,3,4-tetrahydroquinazolin-8-yl)-N,N-dimethylpicolinamide], the GI50 in experiment [1] (Homo sapiens, NCI-H1650) was 500 to 2000 nM. Further, the 50% inhibitory concentration (IC50) in experiment [3] and in experiment [4] was < 30 nM throughout.
With `CO/N=c1\[nH]c2c(N3CCN(C(=O)N(C)C)[C@H](C)C3)cc(S(=O)(=O)NC3(C)CC3)cc2c(=O)n1Cc1cnn(C)c1` [Example 41, (R,E)-4-(2-(methoxyimino)-3-((1-methyl-1H-pyrazol-4-yl)methyl)-6-(N-(1-methylcyclopropyl)sulfamoyl)-4-oxo-1,2,3,4-tetrahydroquinazolin-8-yl)-N,N,2-trimethylpiperazine-1-carboxamide], in experiment [1] (Homo sapiens, NCI-H1650), the 50% growth inhibitory concentration (GI50) is < 500 nM. The concentration for half-maximal inhibition (IC50) in experiment [3] and in experiment [4] was < 30 nM throughout.
On to `CO/N=c1\[nH]c2c(N3CCN(C(=O)C4(N(C)C)CC4)[C@H](C)C3)cc(S(=O)(=O)NC3(C)CC3)cc2c(=O)n1Cc1cnn(C)c1` [Example 34, (R,E)-8-(4-(1-(dimethylamino)cyclopropane-1-carbonyl)-3-methylpiperazin-1-yl)-2-(methoxyimino)-3-((1-methyl-1H-pyrazol-4-yl)methyl)-N-(1-methylcyclopropyl)-4-oxo-1,2,3,4-tetrahydroquinazoline-6-sulfonamide], for which the GI50 in experiment [1] (Homo sapiens, NCI-H1650) was < 500 nM. For the same compound, the IC50 in experiment [3] and in experiment [4] was < 30 nM each time.
Consider `CO/N=c1\[nH]c2c(-c3ccc(C(=O)N(C)C)cn3)cc(S(=O)(=O)NC3(C)CC3)cc2c(=O)n1Cc1cnn(C)c1` [Example 20, (E)-6-(2-(methoxyimino)-3-((1-methyl-1H-pyrazol-4-yl)methyl)-6-(N-(1-methylcyclopropyl)sulfamoyl)-4-oxo-1,2,3,4-tetrahydroquinazolin-8-yl)-N,N-dimethylnicotinamide], for which, in experiment [1] (Homo sapiens, NCI-H1650), the 50% growth inhibitory concentration (GI50) lay in the range of 500 to 2000 nM. Also, the half-inhibitory concentration (IC50) in experiment [3] and in experiment [4] was < 30 nM each time.
In the case of `CO/N=c1\[nH]c2c(N3CCN(C(=O)C4(C)CCC4)[C@H](C)C3)cc(S(=O)(=O)NC3(C)CC3)cc2c(=O)n1Cc1cnn(C)c1` [Example 38, (R,E)-2-(methoxyimino)-3-((1-methyl-1H-pyrazol-4-yl)methyl)-8-(3-methyl-4-(1-methylcyclobutane-1-carbonyl)piperazin-1-yl)-N-(1-methylcyclopropyl)-4-oxo-1,2,3,4-tetrahydroquinazoline-6-sulfonamide], in experiment [1] (Homo sapiens, NCI-H1650), the 50% growth inhibitory concentration (GI50) was < 500 nM. Besides, the IC50 in experiment [3] and in experiment [4] was < 30 nM each time.
In the case of `CCO/N=c1\[nH]c2ccc(S(=O)(=O)NC3(C)CC3)cc2c(=O)n1Cc1cnn(C)c1` [Example 10, 2-ethoxyimino-N-(1-methylcyclopropyl)-3-[(1-methylpyrazol-4-yl)methyl]-4-oxo-1H-quinazoline-6-sulfonamide], in experiment [1] (Homo sapiens, NCI-H1650), the GI50 is 500 to 2000 nM. Also, the IC50 was 30 to 99 nM in experiment [3] and < 30 nM in experiment [4].
On the same counts, the results for `CO/N=c1\[nH]c2c(N3CCN(C(C)=O)[C@H](C)C3)cc(S(=O)(=O)NC3(C)CC3)cc2c(=O)n1Cc1cnn(C)c1` [Example 12, (2E)-2-methoxyimino-N-(1-methylcyclopropyl)-3-[(1-methylpyrazol-4-yl)methyl]-4-oxo-8-[(3R)-4-acetyl-3-methyl-piperazin-1-yl]-1H-quinazoline-6-sulfonamide] are < 500 nM, < 30 nM and < 30 nM.
